{"source": "patent US20080118940A1", "about": "“PROTEASOMAL PEPTIDASE ACTIVITY AND THE USE THEREOF IN CLINICAL APPLICATIONS” (priority 2006, published 2008)", "molecules": {"B1": {"name": "α1-anti-chymotrypsin: pancreatic chymotrypsin inhibitor (Sigma, catalog #A9285) (protein, UniProt P01011 24-423, looked up)", "Alpha-1-antichymotrypsin": "HPNSPLDEENLTQENQDRGTHVDLGLASANVDFAFSLYKQLVLKAPDKNVIFSPLSISTALAFLSLGAHNTTLTEILKGLKFNLTETSEAEIHQSFQHLLRTLNQSSDELQLSMGNAMFVKEQLSLLDRFTEDAKRLYGSEAFATDFQDSAAAKKLINDYVKNGTRGKITDLIKDLDSQTMMVLVNYIFFKAKWEMPFDPQDTHQSRFYLSKKKWVMVPMMSLHHLTIPYFRDEELSCTVVELKYTGNASALFILPDQDKMEEVEAMLLPETLKRWRDSLEFREIGELYLPKFSISRDYNLNDILLQLGIEEAFTSKADLSGITGARNLAVSQVVHKAVLDVFEEGTEASAATAVKITLLSALVETRTIVRFNRPFLMIIVPTDTQNIFFMSKVTNPKQA"}}, "key": {"[1]": {"molecular_target": "T1, proteasomal caspase-like activity (Cas-L) (Homo sapiens, UniProt P28072)", "T1 construct": "in samples of purified proteasome, plasma, and white blood cell lysate; from tissue; host or cells: purified proteasome; plasma; white blood cell lysate (normal individuals)", "T1 sequence (P28072 1-239)": "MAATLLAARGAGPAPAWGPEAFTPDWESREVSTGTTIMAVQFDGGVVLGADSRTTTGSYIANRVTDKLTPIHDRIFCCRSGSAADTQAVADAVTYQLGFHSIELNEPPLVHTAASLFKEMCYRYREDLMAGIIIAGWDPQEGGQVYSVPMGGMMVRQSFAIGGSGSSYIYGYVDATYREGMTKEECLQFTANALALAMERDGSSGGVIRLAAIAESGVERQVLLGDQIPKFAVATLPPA", "experiment": "Proteasome inhibitor effect on caspase-like (Cas-L) peptidase activity, fluorogenic Z-LLE-AMC assay", "assay_type": "biochemical", "conditions": "purified proteasome, plasma and white blood cell lysate; YU-101 0.4 μg/mL; substrate 200 μM", "method": "(§1) Ch-L, Tr-L, and Cas-L activities in peripheral blood plasma from patients were measured as follows. Frozen patient plasma samples were processed by thawing at room temperature and mixed thoroughly. 45 μL of thawed plasma was pipetted into a microfuge tube (Tube 1), and 22.5 μL plasma was pipetted into another microfuge tube (Tube 2). 5 μL 10% SDS was pipetted into Tube 1, and 2.5 μL 10% tween 20 was pipetted into Tube 2. Each tube was mixed and incubated at room temperature for 15 minutes resulting in processed samples. All buffers, substrate stock solutions, controls, and microwell plates were equilibrated to room temperature. The proteasome control was placed on ice immediately after thawing. […] Cleavage of substrate was detected using the SPECTRAmax GEMINI EM instrument with SoftMax Pro data Collection software. […] Fluorescence excitation and emission wavelengths were 380 nm and 460 nm, respectively. Samples were read at 1 minute intervals over 30 minutes. Green fluorescence was detected in columns 1, 4, 7, and 10, representing Ch-L activity; blue fluorescence was detected in columns 3, 6, 9, and 12, representing Cas-L activity; and yellow fluorescence was detected in columns 2, 5, 8, and 11, representing Tr-L activity. […]"}, "[2]": {"molecular_target": "T2, human pancreatic α-chymotrypsin (Homo sapiens, UniProt P17538)", "T2 construct": "purchased Sigma C-8946; host or cells: isolated from human pancreas", "T2 sequence (P17538 34-164 limits assumed, other chains not shown)": "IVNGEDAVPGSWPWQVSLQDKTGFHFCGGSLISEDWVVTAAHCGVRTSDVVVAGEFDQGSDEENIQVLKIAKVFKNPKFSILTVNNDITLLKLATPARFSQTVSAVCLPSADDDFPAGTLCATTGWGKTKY", "T2 sequence (P17538 167-263 limits assumed, other chains not shown)": "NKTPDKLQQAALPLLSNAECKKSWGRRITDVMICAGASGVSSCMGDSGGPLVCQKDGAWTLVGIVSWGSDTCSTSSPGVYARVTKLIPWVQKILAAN", "experiment": "Specificity of proteasomal enzymatic assay: pancreatic chymotrypsin activity", "assay_type": "biochemical", "conditions": "Suc-LLVY-AMC", "method": "as §1"}, "[3]": {"test_system": "proteasomal trypsin-like activity (Tr-L)", "experiment": "Proteasome inhibitor effect on trypsin-like (Tr-L) peptidase activity, fluorogenic BZ-VGR-AMC assay", "assay_type": "biochemical, human", "conditions": "purified proteasome, plasma and white blood cell lysate; YU-101 0.4 μg/mL; substrate 200 μM", "method": "as §1"}, "[4]": {"test_system": "proteasome Ch-L activity in plasma from an AML patient", "experiment": "Dose response of Ch-L activity in plasma from an AML patient", "assay_type": "biochemical, human", "conditions": "for % Inhibition / Activity: AML patient plasma", "method": "(§2) Ch-L, Tr-L, and Cas-L activities in peripheral blood plasma from patients were measured as follows. Frozen patient plasma samples were processed by thawing at room temperature and mixed thoroughly. 45 μL of thawed plasma was pipetted into a microfuge tube (Tube 1), and 22.5 μL plasma was pipetted into another microfuge tube (Tube 2). 5 μL 10% SDS was pipetted into Tube 1, and 2.5 μL 10% tween 20 was pipetted into Tube 2. Each tube was mixed and incubated at room temperature for 15 minutes resulting in processed samples. All buffers, substrate stock solutions, controls, and microwell plates were equilibrated to room temperature. The proteasome control was placed on ice immediately after thawing. Substrate working solutions (1 mM) were made by adding 950 μL buffer A (1×HEPES/0.05% SDS) to 50 μL stock solution of Ch-L and Cas-L substrates (20 mM Suc-LLVY-AMC and 20 mM Z-LLE-AMC) and mixed. 950 μL buffer B (1×HEPES/0.05% Tween 20) was added to 50 μL stock solution of Tr-L substrate (20 mM BZ-VGR-AMC) and mixed. Working solutions were protected from light. A microwell plate (containing 12 columns of wells) was set-up according to a plate map as follows: 30 μL buffer A was pipetted into the wells of columns 1, 4, 7, and 10 (to measure Ch-L activity) and 3, 6, 9, and 12 (to measure Cas-L activity). 30 μL buffer B was pipetted into the wells of columns 2, 5, 8, and 11 (to measure Tr-L). 10 μL buffer A or B served as blank controls. 10 μL of processed samples were pipetted into duplicate wells for each substrate (i.e., 6 wells per processed plasma sample), to the designated wells according to the plate map. 10 μL of substrate was added to the designated wells according to the plate map. The final concentration of substrate was 200 μM. Cleavage of substrate was detected using the SPECTRAmax GEMINI EM instrument with SoftMax Pro data Collection software. The instrument incubation chamber temperature was set to 37° C. Fluorescence excitation and emission wavelengths were 380 nm and 460 nm, respectively. Samples were read at 1 minute intervals over 30 minutes. Green fluorescence was detected in columns 1, 4, 7, and 10, representing Ch-L activity; blue fluorescence was detected in columns 3, 6, 9, and 12, representing Cas-L activity; and yellow fluorescence was detected in columns 2, 5, 8, and 11, representing Tr-L activity.\nA dose response study was conducted to determine the effect of concentration of YU-101 on Ch-L activity as assayed in plasma from an AML patient. YU-101 (200 ng/μL) was serially diluted 1:4 in HEPES buffer to produce solutions having concentrations of 0.78, 3.125, 12.5, 50, and 200 ng/μL for dose response experiments. 70 μL of plasma from an AML patient was combined with 1 μL inhibitor solution and incubated at room temperature for 15 minutes. Ch-L activity was determined as in Example 1."}, "[5]": {"test_system": "proteasomal chymotrypsin-like activity (Ch-L)", "experiment": "Proteasome inhibitor effect on chymotrypsin-like (Ch-L) peptidase activity, fluorogenic Suc-LLVY-AMC assay", "assay_type": "biochemical, human", "conditions": "purified proteasome, plasma and white blood cell lysate; YU-101 0.4 μg/mL; substrate 200 μM", "method": "as §1"}, "[6]": {"molecular_target": "T3, Pure human 20S proteasome (Homo sapiens, UniProt P28074)", "T3 construct": "purchased Biomol International PW8720-0050", "experiment": "Specificity of proteasomal enzymatic assay: Ch-L activity of purified 20S proteasome", "assay_type": "biochemical", "conditions": "Suc-LLVY-AMC"}, "[7]": {"test_system": "proteasome Ch-L activity in whole blood cell lysate from a normal individual", "experiment": "Dose response of Ch-L activity in whole blood lysate from a normal individual", "assay_type": "biochemical, human", "design": "Activity: unit not given beside the values", "conditions": "for % Inhibition / Activity: whole blood, normal individual", "method": "as §2\nA dose response study was conducted to determine the effect of concentration of YU-101 on Ch-L activity in a whole blood lysate from a normal individual. YU-101 (200 ng/μL) was serially diluted 1:2 in HEPES buffer to produce solutions having concentrations of 6.25, 12.5, 25, 50, and 100 ng/μL for dose response experiments. 70 μL of […] was combined with 1 μL inhibitor solution and incubated at room temperature for 15 minutes. Ch-L activity was determined as in Example 1."}}}
{"molecule": "CC(=O)NC(CCc1ccccc1)C(=O)NC(CC(C)C)C(=O)NC(Cc1ccccc1)C(=O)NC(CC(C)C)C(=O)C1(C)CO1", "note": "(centres unmarked) [YU-101]", "values": [{"measurement": "inhibition of caspase-L activity", "setting": "[1]", "result": "weaker inhibitor"}, {"measurement": "Vmax Ch-L (fluorescence)", "setting": "[2]; pancreatic α-chymotrypsin + YU-101, final 4 ng/μL", "result": "No activity"}, {"measurement": "inhibition of trypsin-L activity", "setting": "[3]", "result": "weaker inhibitor"}, {"measurement": "% Inhibition", "setting": "[4]; approx. YU-101 0.00156 ng/μL", "result": 0.00, "unit": "%"}, {"measurement": "Activity", "setting": "[4]; approx. YU-101 0.00156 ng/μL", "result": 233781}, {"measurement": "% Inhibition", "setting": "[4]; approx. YU-101 0.00625 ng/μL", "result": 8.98, "unit": "%"}, {"measurement": "Activity", "setting": "[4]; approx. YU-101 0.00625 ng/μL", "result": 212786}, {"measurement": "% Inhibition", "setting": "[4]; approx. YU-101 0.025 ng/μL", "result": 38.41, "unit": "%"}, {"measurement": "Activity", "setting": "[4]; approx. YU-101 0.025 ng/μL", "result": 143991}, {"measurement": "% Inhibition", "setting": "[4]; approx. YU-101 0.1 ng/μL", "result": 62.54, "unit": "%"}, {"measurement": "Activity", "setting": "[4]; approx. YU-101 0.1 ng/μL", "result": 87573}, {"measurement": "% Inhibition", "setting": "[4]; approx. YU-101 0.4 ng/μL", "result": 69.56, "unit": "%"}, {"measurement": "Activity", "setting": "[4]; approx. YU-101 0.4 ng/μL", "result": 71162}, {"measurement": "inhibition of Ch-L activity, dose dependence", "setting": "[4]; plasma of an AML patient", "result": "dose-dependent"}, {"measurement": "inhibition of chymotrypsin-L activity", "setting": "[5]", "result": "strong inhibitor"}, {"measurement": "Vmax Ch-L (fluorescence)", "setting": "[6]; purified 20S proteasome + YU-101, final 4 ng/μL", "result": "No activity"}, {"measurement": "inhibition of Ch-L activity, dose dependence", "setting": "[7]; whole blood cell lysate from a normal individual", "result": "dose-dependent"}, {"measurement": "% Inhibition", "setting": "[7]; approx. YU-101 0.0125 ng/μL", "result": 3.2, "unit": "%"}, {"measurement": "Activity", "setting": "[7]; approx. YU-101 0.0125 ng/μL", "result": 92002}, {"measurement": "% Inhibition", "setting": "[7]; approx. YU-101 0.025 ng/μL", "result": 24.0, "unit": "%"}, {"measurement": "Activity", "setting": "[7]; approx. YU-101 0.025 ng/μL", "result": 72252}, {"measurement": "% Inhibition", "setting": "[7]; approx. YU-101 0.05 ng/μL", "result": 38.4, "unit": "%"}, {"measurement": "Activity", "setting": "[7]; approx. YU-101 0.05 ng/μL", "result": 58544}, {"measurement": "% Inhibition", "setting": "[7]; approx. YU-101 0.1 ng/μL", "result": 82.0, "unit": "%"}, {"measurement": "Activity", "setting": "[7]; approx. YU-101 0.1 ng/μL", "result": 17070}, {"measurement": "% Inhibition", "setting": "[7]; approx. YU-101 0.2 ng/μL", "result": 92.6, "unit": "%"}, {"measurement": "Activity", "setting": "[7]; approx. YU-101 0.2 ng/μL", "result": 7024}]}
{"molecule": "B1", "values": [{"measurement": "Vmax Ch-L (fluorescence)", "setting": "[2]; pancreatic α-chymotrypsin + α1-anti-chymotrypsin, final 40 ng/μL", "result": "No activity"}, {"measurement": "Vmax Ch-L (fluorescence)", "setting": "[6]; purified 20S proteasome + α1-anti-chymotrypsin, final 40 ng/μL", "result": "121,813"}]}
